# Data: patent US20090270448A1, “PHARMACEUTICAL FORMULATIONS COMPRISING CLOPIDOGREL” (ACINO PHARMA AG, priority 2006, published 2009)
# Where a name gives a salt, the structure may show the parent alone.
# Tests used:
# [1] = Storage stability of clopidogrel hydrochloride and melt granulates containing it (HPLC impurities); assay type: physicochemical
# Description: The stability on storage of clopidogrel hydrochloride salt (CLO.HCl) has been examined in comparison to melt granulates containing it. The main degradation product is alpha-(2-chlorophenyl)-4,5,6,7-tetrahydrothieno[3,2-c]pyridine-5-acetic acid, hereinafter designated as “ImpA” (impurity acid). In addition, the sum of all impurities (“SumImp”) is determined by HPLC analogously as described above for clopidogrel besylate. Both ImpA and SumImp are expressed as percent by weight of the amount of the clopidogrel salt at the beginning of the experiment on day 0. The granulates mentioned in the below Table 2 are melt granulates consisting of 50% by weight of PEG 6000 and 50% clopidogrel hydrochloride, and 50% Compritol 888 ATO and 50% clopidogrel hydrochloride, respectively.
# [2] = Storage stability of clopidogrel besylate and melt granulates containing it (HPLC impurities); assay type: physicochemical
# Description: The stability on storage of clopidogrel besylate salt (CLO.Bes) is examined in comparison to melt granulates containing it. The main degradation product is alpha-(2-chlorophenyl)-4,5,6,7-tetrahydrothieno[3,2-c]pyridine-5-acetic acid, hereinafter designated as “ImpA” (ImpA is named according to USP 29 and corresponds to the hydrolysis product of Clopidogrel). In addition, the sum of all impurities (“SumImp”) is determined. Both ImpA and SumImp are expressed as percent by weight of the amount of the clopidogrel salt at the beginning of the experiment on day 0 and are determined using the HPLC-system described below.
# In the below Table 1 for example the term “10% PEG 6000” means the melt granulate consisting of 10% by weight PEG 6000 and 90% by weight clopidogrel besylate, 30% PEG 6000 means the melt granulate consisting of 30% by weight PEG 6000 and 70% by weight clopidogrel besylate, etc.
# The above-mentioned HPLC system is as follows:
# Column: 250 mm×4.6 mm Modulo-Cart QS Uptisphere HDO, 3 μm
# Detector: UV Detector or DAD Detector
# Eluent A: 0.01M sodium phosphate dibasic aqueous solution (1.78 g Na2HPO4*2H2O/l), adjusted to pH 3.0±0.05 with phosphoric acid 85%
# Mobile phase: 35% Eluent A+65% Eluent B
# Preparation of Reference and Sample Solutions:
# Approximately 55.92 mg of clopidogrel besilate reference substance are weighed into a 50 ml volumetric flask. Add 20 ml of mobile phase and sonicate in an ultrasonic bath at ambient temperature until the substance is dissolved (approx. 5 min). Make up to the mark with mobile phase. The concentration of clopidogrel besilate is 0.75 mg/ml as free base. Two independent reference solutions are prepared.
# Sample Solution for 75 mg Tablets
# Weigh 10 tablets and transfer them quantitatively into a 250 ml volumetric flask. Dissolve and make up to the mark with mobile phase. Dilute 25.0 ml to 100.0 ml with mobile phase. Filter through a 0.45 μm PTFE-filter in a HPLC vial. The concentration of clopidogrel is 0.75 mg/ml as free base. Two independent sample solutions are prepared.
# [3] = Day 0, percent by weight of the clopidogrel salt at day 0, HPLC
# [4] = Day 30 at 40° C. and 75% relative humidity
# [5] = Day 15 at 50° C. and 75% relative humidity
SumImp [%] ([1]; Day 0),"ImpA [%] [1, 3] [%]","ImpA [%] [1, 4] [%]","SumImp [%] [1, 4] [%]",impurities relative to clopidogrel hydrochloride stabilized in the melt granulates ([1]; after storage for 30 days at 40° C. and 75% relative humidity),"ImpA [%] [2, 3] [%]","SumImp [%] ([2]; Day 0, sum of all impurities, percent by weight of the clopidogrel salt at day 0, HPLC)","ImpA [%] [2, 5] [%]","SumImp [%] [2, 5] [%]",SMILES
0.58,0.18,1.28,1.99,nearly twice as much impurities,,,,,"COC(=O)[C@H](c1ccccc1Cl)N1CCc2sccc2C1 [CLO•HCl, clopidogrel hydrochloride]"
,,,,,0.09,0.24,0.34,0.52,"COC(=O)[C@H](c1ccccc1Cl)N1CCc2sccc2C1 [CLO•Bes, clopidogrel besylate]"
